Measurements published in patent US4237141A, “Derivatives of α-methyl-β-aminopropiophenone and use thereof” (priority 1977, dated 1980).

Assays:
[1] = tested on: guinea-pig isolated tracheal smooth muscles; test: Relaxant action on guinea-pig isolated tracheal chain contracted by histamine; conditions: for EC50: Cavia porcellus, contracted by 10^-4 M histamine, read-out: A: 50% effective amount for the guinea-pig isolated tracheal smooth muscles (50% relaxation); for B/A: selectivity to tracheal smooth muscles: based on reference B/A value 1 for isoproterenol, B from canine femoral artery
Source text: (§1) Reference will now be made to pharmacological effects of the compounds according to the present invention.
(§2) (1) Relaxant action on the guinea-pig isolated tracheal smooth muscles and the vasodilating action on the canine anesthetized femoral arterial preparation were employed to compare the pharmacological effects of each of the compounds.

[2] = tested on: canine femoral arterial preparation; test: Vasodilating action in the canine anesthetized femoral arterial preparation (close arterial injection); type: in vivo
Source text: as §1, §2

[3] = tested on: β-adrenoceptor; test: Relaxant action on guinea-pig isolated trachea in the presence of propranolol (β-adrenoceptor involvement); conditions: histamine 10^-4 M; propranolol 2.5×10^-5 M; FIGS. 1-4
Source text: as §2
Histamine (10^-4 M in the bath medium) was applied to the guinea-pig isolated tracheal preparation to contract the muscles, and the effect of the above compounds to inhibit the contraction (%) was plotted along the ordinate on each of the points for concentration which were connected by a solid line into a curve. Then, the dose-response curve for the compound in the presence of propranolol (2.5×10^-5 M) was obtained and plotted in a dotted line.

[4] = Acute toxicity, intraperitoneal injection in mice; conditions: mouse, in vivo, ip; intraperitoneal injection to mice; read-out: F: Approx. LD50 value
Description: Another experiment was also conducted using mice as an index for the acute toxicity to the whole body.
Approx. LD50 value on intraperitoneal injection for mice was determined.

[5] = tested on: canine blood-perfused tracheal preparation; test: Canine blood-perfused tracheal preparation in situ: intraluminal pressure decrease and perfused-blood flow increase; type: in vivo; conditions: for D/C × 10: selectivity: based on reference D/C value 1 for isoproterenol; for C: dose required for 20 cm H2O decrease in the tracheal intraluminal pressure (bronchodilator action) / D: dose required for 5 ml/min increase in the perfused-blood flow (vasodilator action): canine blood-perfused tracheal preparation in situ
Description: as §1
The bronchodilator action was represented by a dose (C), μg, of a compound required for decreasing the intraluminal pressure by 20 cm H2 O and the vasodilator action was represented by a dose (D), μg, of the compound required for increasing the perfused-blood flow by 5 ml/min.

SMILES	EC50 [1]	B/A: selectivity to tracheal smooth muscles [1]	B: dose required for 30 ml/min increase in the perfused-blood flow (vasodilator action) [2]	difference between dose-response curves without and with propranolol (inhibition of histamine contraction) [3]	LD50 [4]	D/C × 10: selectivity [5]	C: dose required for 20 cm H2O decrease in the tracheal intraluminal pressure (bronchodilator action) [5]	D: dose required for 5 ml/min increase in the perfused-blood flow (vasodilator action) [5]
CC(CN1CCCCC1)C(=O)c1ccc([S+](C)[O-])cc1 (centres unmarked) [Compound 4, 1-(4-methylsulfinylphenyl)-3-piperidino-2-methylpropanone-1]	300 µM	3	800 µg					
CC[S+]([O-])c1ccc(C(=O)C(C)CN2CCCCC2)cc1 (centres unmarked) [Compound 10]	200 µM	4	700 µg					
CC(CN1CCCCC1)C(=O)c1ccc(S(C)(=O)=O)cc1 (centres unmarked) [Compound 16, 1-(4-methylsulfonylphenyl)-3-piperidino-2-methylpropanone-1]	60 µM	12	750 µg	no substantial difference				
CCS(=O)(=O)c1ccc(C(=O)C(C)CN2CCCCC2)cc1 (centres unmarked) [Compound 22, 1-(4-ethylsulfonylphenyl)-3-piperidino-2-methylpropanone-1]	60 µM	9	580 µg					
CCSc1ccc(C(=O)C(C)CN2CCOCC2)cc1 (centres unmarked) [Compound 25, 1-(4-ethylthiophenyl)-3-morpholino-2-methylpropanone-1]	100 µM	1	100 µg		200 mg/kg			
CCCC[S+]([O-])c1ccc(C(=O)C(C)CN2CCCCC2)cc1 (centres unmarked) [Compound 28, 1-(4-butylsulfinylphenyl)-3-piperidino-2-methylpropanone-1]	60 µM	8	460 µg					
CCSc1ccc(C(=O)C(C)CN2CCCCC2)cc1 (centres unmarked) [Compound 29, 1-(4-ethylthiophenyl)-3-piperidino-2-methylpropanone-1]	2 µM	90	180 µg	no substantial difference		7	109 µg	77 µg
CCCCS(=O)(=O)c1ccc(C(=O)C(C)CN2CCCCC2)cc1 (centres unmarked) [Compound 36, 1-(4-butylsulfonylphenyl)-3-piperidino-2-methylpropanone-1]	20 µM	18	360 µg			3	333 µg	100 µg
CCSc1ccc(C(=O)C(C)CN2CCCC2)cc1 (centres unmarked) [Compound 37]	30 µM	6	175 µg		200 mg/kg			
CC(CN1CCCCC1)C(=O)c1ccc(S(=O)(=O)c2ccccc2)cc1 (centres unmarked) [Compound 42, 1-(4-phenylsulfonylphenyl)-3-piperidino-2-methylpropanone-1]	20 µM	9	175 µg					
CSc1ccc(C(=O)C(C)CN(C)C)cc1 (centres unmarked) [Compound 48, 1-(4-methylthiophenyl)-3-dimethylamino-2-methylpropanone-1]	6 µM	17	100 µg					
CSc1ccc(C(=O)C(C)CN2CCCC2)cc1 (centres unmarked) [Compound 50]	6 µM	7	43 µg					
CSc1ccc(C(=O)C(C)CN2CCCCC2)cc1 (centres unmarked) [Compound 51, 1-(4-methylthiophenyl)-3-piperidino-2-methylpropanone-1]	6 µM	40	240 µg	no substantial difference		8	62.5 µg	50 µg
CSc1ccc(C(=O)C(C)CN2CCN(C)CC2)cc1 (centres unmarked) [Compound 53]	200 µM	2	430 µg					
CCSc1ccc(C(=O)C(C)CN(C)C)cc1 (centres unmarked) [Compound 54]	60 µM	6	350 µg		200 mg/kg			
CCSc1ccc(C(=O)C(C)CN(CC)CC)cc1 (centres unmarked) [Compound 55]	60 µM	5	270 µg		200 mg/kg			
CC(C)NCC(O)c1ccc(O)c(O)c1 (centres unmarked) [isoproterenol, reference compound]	0.005 µM		0.0053 µg				0.1 µg	0.01 µg
CC(C)(C)NCC(O)c1ccc(O)c(CO)c1 (centres unmarked) [salbutamol]						2	2 µg	0.4 µg
CC(C)(C)NCC(O)c1cc(O)cc(O)c1 (centres unmarked) [terbutaline]						4	0.5 µg	0.2 µg
COc1cc(CC2NCCc3cc(O)c(O)cc32)cc(OC)c1OC (centres unmarked) [trimetoquinol]						2.5	0.2 µg	0.05 µg
